According to patent publication US9023836B2, “Use of substituted heterocyclic compounds to control sea lice on fish” (Novartis Tiergesundheit AG, priority 2010, dated 2015):
Values after ≈ are worked out from the molar mass of the structure shown.

How the values were obtained:
[1] = tested on: Lepeophtheirus salmonis adult lice; test: In vitro activity against Lepeophtheirus salmonis at adult stage; conditions: at 1 ppm; 60 minutes exposure, survival at 24 hours post exposure, 12° C.
Description: In Vitro Activity of Compound 8 Against Lepeophtheirus Salmonis at Adult Stage
Ten mixed sex adult lice (non gravid, Lepeophtheirus salmonis) were removed from fish and exposed to a test compound at several dilution in filtered sea water and placed in an incubator at 12° C. in dark conditions. After 60 minutes exposure, lice were rinsed in clean sea water and transferred to petri dishes containing 100 mL of sea water. They were then returned to the incubator. Lice were examined for survival at 24 hours post exposure (moribund lice considered as dead)

[2] = tested on: Lepeophtheirus salmonis on Atlantic salmon; test: In vivo activity against Lepeophtheirus salmonis on Atlantic salmon using injectable application
Description: In Vivo Activity of Compound 8 Against Lepeophtheirus Salmonis on Atlantic Salmon using Injectable Application
Twenty Atlantic salmon (mean weights at about 100 g) were anaesthetized with 2-phenoxy ethanol, individually weighed and injected with 0.2 ml of compound 8 formulated in PEG300 at 2.5%, corresponding to a 50 mg/kg dose. Each treatment was administered by single IP injection and fish were then transferred to a flow through tank, the temperature of which was maintained between 6 and 14° C. Louse infection was by exposure of experimental fish to louse copepodids freshly hatched from Lepeophtheirus salmonis egg strings. The number of copepodids used was selected to provide a settlement rate of at least 10 lice per fish. Sea louse numbers were assessed when they had developed to chalimus stage III/IV or later on if needed.
(§1) Ten fish per group were anaesthetized with 2 phenoxy-ethanol and examined for louse settlement under a dissecting microscope. Differences in sea louse counts between each test group and the relevant control group (non treated) infested at the same time as the test group were assessed using Mann-Whitney Tests. Efficacy was calculated using the formula: % Efficacy=100−(100×mean of treatment group/mean of control).

[3] = tested on: Lepeophtheirus salmonis on Atlantic salmon; test: In vivo activity against Lepeophtheirus salmonis on Atlantic salmon using bath treatment application; conditions: bath 2 ppm in salt water, 60 minutes
Description: In Vivo Activity of Compound 8 Against Lepeophtheirus Salmonis on Atlantic Salmon using Bath Treatment Application Bath containing compound 8 at 2 ppm in salt water was prepared by dilution of a solution of compound 8 in DMSO. Fish (Atlantic salmons) had been previously infected with 2 cohorts of lice to ensure the presence of chalimus and motile lice at the time of treatment. This test was performed on thirty fish per group and was compared to 30 control fish that were bathed in sea water containing DMSO only (at an inclusion rate equal to that used in the test group using the most DMSO as solvent), for 60 minutes. The fish were then transferred to holding tanks and sampled for lice numbers at 3 and 10 days post treatment. Ten fish per group were anaesthetized with 2 phenoxy-ethanol and examined for louse settlement under a dissecting microscope. Differences in sea louse counts between each test group and the relevant control group (non treated) infested at the same time as the test group were assessed using Mann-Whitney Tests. Efficacy was calculated using the formula: % Efficacy=100−(100×mean of treatment group/mean of control).

[4] = tested on: Lepeophtheirus salmonis copepodids; test: Activity in vitro against Lepeophtheirus salmonis at copepodid stage; conditions: 1 hour contact in sea water, then 48 h in untreated sea water, no movement over 80 seconds, read-out: efficacy (EC80)
Description: Activity in Vitro Against Lepeophtheirus Salmonis at Copepodid Stage Sea lice copepodids were used to seed a 96-well plate containing the test substances to be evaluated for antiparasitic activity. Each compound was tested by serial dilution in order to determine its minimal effective dose (MED). Copepodids were left in contact with the test compound diluted in sea water for 1 hour. They were then incubated in untreated sea water for 48 h. Efficacy against sea lice was then confirmed if no copepodid moved over a period of 80 seconds.

[5] = tested on: Lepeophtheirus salmonis on Atlantic salmon; test: In vivo activity against Lepeophtheirus salmonis on Atlantic salmon using in-feed application; conditions: medicated pellets 9.8 mg/kg/day, 7 consecutive days
Description: In Vivo Activity of Compound 8 Against Lepeophtheirus Salmonis on Atlantic Salmon using In-Feed Application
Compound 8 was administered orally via medicated fish pellets at an average dose of 9.8 mg/kg/day during 7 consecutive days to 50 Atlantic salmon infected with lice (Lepeophtheirus salmonis). The medicated pellets were prepared by dry top coating of the compound 8, formulated as feed additive as described above, and over-oiling to seal (1% fish oil). Fish had been previously infected by exposure to louse. The number of copepodids used was selected to provide an settlement rate of at least 10 lice per fish. Treatment was done when lice had developed to pre-adult II and adult stages. Sea louse numbers were assessed 34 days post treatment. A second challenge using louse copepodids took place at 41 days post treatment. Sea louse numbers were assessed when they had developed to adults.
as §1, with “All” for “Ten”, “fish” for “fish per group”

[6] = 50 mg/kg IP, 14 days post treatment, Chalimus III
[7] = 50 mg/kg IP, 41 days post treatment, Chalimus III
[8] = 50 mg/kg IP, 83 days post treatment, Chal III/IV
[9] = 50 mg/kg IP, 127 days post treatment, Chal III/IV
[10] = 50 mg/kg IP, 169 days post treatment, Chal III/IV
[11] = 50 mg/kg IP, 217 days post treatment, Adults
[12] = 50 mg/kg IP, 217 days post treatment, Chal III/IV
[13] = 50 mg/kg IP, 217 days post treatment, PAI & PAII
[14] = 50 mg/kg IP, 252 days post treatment, Chal IV/PAI

In the case of O=C(NCC(F)(F)F)c1ccc(C2=NOC(c3cc(Cl)cc(Cl)c3)(C(F)(F)F)C2)c2ccccc12 (centres unmarked) [Example 8], the Efficacy [1] is reported as “more than 90%”, the Efficacy [2, 6] is reported as 99.5% and the “Mean lice count of treated fish ± s.d.” value [2, 6] is reported as 0.1 ± 0.3. For the same compound, the Efficacy [2, 7] was 100%, the “Mean lice count of treated fish ± s.d.” value [2, 7] was 0.0 ± 0.0 and the Efficacy [2, 8] was 100%. For the same compound, the “Mean lice count of treated fish ± s.d.” value [2, 8] was 0.0 ± 0.0, the Efficacy [2, 9] was 100% and the “Mean lice count of treated fish ± s.d.” value [2, 9] was 0.0 ± 0.0. The Efficacy [2, 10] was 100%, the “Mean lice count of treated fish ± s.d.” value [2, 10] was 0.0 ± 0.0 and the Efficacy [2, 11] was 97.3%. The “Mean lice count of treated fish ± s.d.” value [2, 11] was 0.5 ± 1.0, the Efficacy [2, 12] was 74.3% and the “Mean lice count of treated fish ± s.d.” value [2, 12] was 22.9 ± 27.7. The Efficacy [2, 13] was 94.6%, the “Mean lice count of treated fish ± s.d.” value [2, 13] was 4.5 ± 5.8 and the Efficacy ([2]; 50 mg/kg IP, 252 days post treatment, Adults) was 84.9%. The Efficacy [2, 14] was 29.8%, the “Mean lice count of treated fish ± s.d.” value [2, 14] was 21.4 ± 15.5 and the Efficacy ([2]; single IP injection 50 mg/kg in PEG300, for up to 7 months post treatment) was “more than 90%”. The “effective against adult sea lice” value ([3]; 3 days post treatment) was 100%, the “effective against developing chalimus stage” value ([3]; by 10 days post treatment) was 96% and the EC80 [4] was 0.05 µg/mL (≈ 0.0934 µM). For the same compound, the “efficacy as a curative treatment (first challenge)” value ([5]; lice assessed 34 days post treatment) was 100% and the “efficacy on the challenge performed 41 days post treatment” value ([5]; second challenge with copepodids, assessed at adult stage) was 100%.
Work on Cc1cc(C2=NOC(c3cc(Cl)cc(Cl)c3)(C(F)(F)F)C2)ccc1CNC(=O)CC(C)C (centres unmarked) [Example 31] yielded an EC80 [4] of 0.05 µg/mL (≈ 0.103 µM).
Cc1cc(C2=NOC(c3cc(Cl)cc(Cl)c3)(C(F)(F)F)C2)ccc1CNC(=O)C1CCC1 (centres unmarked) [Example 30] gave an EC80 [4] of 0.05 µg/mL (≈ 0.103 µM).
COC(=O)CNC(=O)c1ccc(C2=NOC(c3cc(Cl)cc(Cl)c3)(C(F)(F)F)C2)c2ccccc12 (centres unmarked) [Example 10] gave an EC80 [4] of 0.05 µg/mL (≈ 0.0952 µM).
Compound CN(C)/C=N/C(=O)c1ccc(C2=NOC(c3cc(Cl)cc(Cl)c3)(C(F)(F)F)C2)c2ccccc12 (centres unmarked) [Example 12] has an EC80 [4] of 0.05 µg/mL (≈ 0.0984 µM).
Compound CCCC(=O)NCc1ccc(C2=NOC(c3cc(Cl)cc(Cl)c3)(C(F)(F)F)C2)cc1C (centres unmarked) [Example 25] has an EC80 [4] of 0.05 µg/mL (≈ 0.106 µM).
For Cc1cc(C2=NOC(c3cc(Cl)cc(Cl)c3)(C(F)(F)F)C2)ccc1-n1cncn1 (centres unmarked) [Example 1], the EC80 [4] was 0.05 µg/mL (≈ 0.113 µM).
CCC(=O)NCc1ccc(C2=NOC(c3cc(Cl)cc(Cl)c3)(C(F)(F)F)C2)cc1C (centres unmarked) [Example 17] showed an EC80 [4] of 0.05 µg/mL (≈ 0.109 µM).
In the case of CON/C=N\C(=O)c1ccc(C2=NOC(c3cc(Cl)cc(Cl)c3)(C(F)(F)F)C2)c2ccccc12 (centres unmarked) [Example 13], the EC80 [4] is reported as 0.05 µg/mL (≈ 0.098 µM).
With Cc1cc(C2=NOC(c3cc(Cl)cc(Cl)c3)(C(F)(F)F)C2)ccc1CNC(=O)CCC#N (centres unmarked) [Example 33] the EC80 [4] was 0.05 µg/mL (≈ 0.103 µM).
Work on COCCC(=O)NCc1ccc(C2=NOC(c3cc(Cl)cc(Cl)c3)(C(F)(F)F)C2)cc1C (centres unmarked) [Example 18] yielded an EC80 [4] of 0.05 µg/mL (≈ 0.102 µM).
In the case of N#Cc1cc(C2=NOC(c3cc(Cl)cc(Cl)c3)(C(F)(F)F)C2)ccc1-n1cncn1 (centres unmarked) [Example 6], the EC80 [4] is reported as 0.05 µg/mL (≈ 0.111 µM).
CC(=O)NCc1ccc(C2=NOC(c3cc(Cl)cc(Cl)c3)(C(F)(F)F)C2)cc1C (centres unmarked) [Example 29] showed an EC80 [4] of 0.05 µg/mL (≈ 0.112 µM).
Cc1cc(C2=NOC(c3cc(Cl)cc(Cl)c3)(C(F)(F)F)C2)ccc1C(=O)NCC(=O)NCC(F)(F)F (centres unmarked) [Example 14] showed an EC80 [4] of 0.05 µg/mL (≈ 0.0899 µM).
In the case of Cc1cc(C2=NOC(c3cc(Cl)cc(Cl)c3)(C(F)(F)F)C2)ccc1CNC(=O)CC1(C)OCCO1 (centres unmarked) [Example 26], the EC80 [4] is reported as 0.05 µg/mL (≈ 0.0941 µM).
O=C(CNC(=O)c1ccc(C2=NOC(c3cc(Cl)cc(Cl)c3)(C(F)(F)F)C2)c2ccccc12)NCC(F)(F)F (centres unmarked) [Example 11] showed an EC80 [4] of 0.05 µg/mL (≈ 0.0844 µM).
In the case of Cc1cc(C2=NOC(c3cc(Cl)cc(Cl)c3)(C(F)(F)F)C2)ccc1C(=O)NCC(F)(F)F (centres unmarked) [Example 3], the EC80 [4] is reported as 0.05 µg/mL (≈ 0.1 µM).
With O=C(NCc1ccccn1)c1ccc(C2=NOC(c3cc(Cl)cc(Cl)c3)(C(F)(F)F)C2)c2ccccc12 (centres unmarked) [Example 7] the EC80 [4] was 0.05 µg/mL (≈ 0.0919 µM).
With Cc1cc(C2=NOC(c3cc(Cl)cc(Cl)c3)(C(F)(F)F)C2)ccc1CNC(=O)C1CC1 (centres unmarked) [Example 24] the EC80 [4] was 0.05 µg/mL (≈ 0.106 µM).
CSCC(=O)NCc1ccc(C2=NOC(c3cc(Cl)cc(Cl)c3)(C(F)(F)F)C2)cc1C (centres unmarked) [Example 28] showed an EC80 [4] of 0.05 µg/mL (≈ 0.102 µM).
CON/C=N/C(=O)c1ccc(C2=NOC(c3cc(Cl)cc(Cl)c3)(C(F)(F)F)C2)cc1C (centres unmarked) [Example 16] showed an EC80 [4] of 0.05 µg/mL (≈ 0.105 µM).
Compound Cc1cc(C2=NOC(c3cc(Cl)cc(Cl)c3)(C(F)(F)F)C2)ccc1C(=O)NCc1ccccn1 (centres unmarked) [Example 2] has an EC80 [4] of 0.05 µg/mL (≈ 0.0984 µM).
